Literature values as cited in patent EP4233849A1, “PHARMACEUTICAL COMPOSITION COMPRISING POMALIDOMIDE” (KRKA, d.d., Novo mesto, priority 2022, dated 2023).
Read-outs that look alike come from different tables or passages of the source.

Assays:
[1] = according to BCS classification
[2] = accelerated and room temperature conditions; anhydrous lactose, microcrystalline cellulose, anhydrous dibasic calcium phosphate, croscarmellose sodium, magnesium stearate

solubility (in absolute ethanol, ethyl acetate, heptane, methanol, 2-propanol and toluene): very slightly soluble
solubility (in acetone, acetonitrile, methylene chloride, methyl ethyl ketone and tetrahydrofuran): slightly soluble
solubility (in water): practically insoluble
solubility [1]: low solubility
stability in the presence of particular excipients [2]: instability problems
SMILES: Nc1cccc2c1C(=O)N(C1CCC(=O)NC1=O)C2=O (racemic) [Pomalidomide, (RS) 4-Amino-2-(2,6-dioxopiperidin-3-yl)isoindole-1,3-dione]
